Experimental data from PMC12040169 (PLOS Biology, 2025).
In brackets after ≈: the same amount, converted by molar mass.

Experiments:
[1] = target: T1, ctFabH (CTL2 FabH), His6(-fMet)SG-ctFabH (Chlamydia trachomatis, UniProt O84242); assay: continuous UV assay of acetoacetyl-CoA at […] nm; type: biochemical; conditions: 20 µM enzyme, 100 µM acetyl-CoA, 100 µM malonyl-CoA, pH 8.0, 25 °C, 50 mM MgCl2
T1 construct: synthetic gene, modified pRSF-Duet1, E. coli host; partly acylated (mainly pentanoyl) as purified
T1 sequence (O84242 2-327): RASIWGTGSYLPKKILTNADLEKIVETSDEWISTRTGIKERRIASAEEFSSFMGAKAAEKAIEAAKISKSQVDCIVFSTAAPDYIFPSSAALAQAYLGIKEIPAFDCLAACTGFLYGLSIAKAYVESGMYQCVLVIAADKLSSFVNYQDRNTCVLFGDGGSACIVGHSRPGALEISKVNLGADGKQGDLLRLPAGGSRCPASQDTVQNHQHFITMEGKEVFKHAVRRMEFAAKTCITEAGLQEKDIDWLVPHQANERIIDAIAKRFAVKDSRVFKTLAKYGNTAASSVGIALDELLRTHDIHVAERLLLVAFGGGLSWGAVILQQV

[2] = test system: T2, G. vaginalis; assay: microbe, parasite or virus in culture; parameters: Microbial growth in liquid dilution assay, OD600 relative to DMSO control; conditions: Gardnerella vaginalis, read-out: G. vaginalis, IC50 (µM) estimate
T2 construct: DSM 4944

[3] = test system: T3, CTL2-GFP (C. trachomatis L2/434/Bu, GFP-expressing); assay: microbe, parasite or virus in culture; parameters: Intracellular C. trachomatis growth in HeLa cells, bulk GFP fluorescence relative to DMSO; conditions: Chlamydia trachomatis, HeLa, 28.5 h; bulk GFP
T3 construct: L2/434/Bu, GFP-expressing
Protocol: (§1) MICs were calculated as described above.

[4] = test system: T4, C. albicans; assay: microbe, parasite or virus in culture; parameters: Microbial growth in liquid dilution assay, OD600 relative to DMSO control; conditions: Candida albicans, read-out: C. albicans, IC50 (µM) estimate
T4 construct: DSM 1577

[5] = test system: T3, CTL2-GFP (C. trachomatis L2/434/Bu, GFP-expressing); assay: microbe, parasite or virus in culture; parameters: species or system HeLa; Intracellular C. trachomatis growth in HeLa cells, bulk GFP fluorescence relative to DMSO; conditions: Chlamydia trachomatis, 28.5 h; bulk GFP
Protocol: as §1

[6] = test system: T5, B. adolescentis; assay: microbe, parasite or virus in culture; parameters: Microbial growth in liquid dilution assay, OD600 relative to DMSO control; conditions: Bifidobacterium adolescentis; estimated IC50; read-out: B. adolescentis, IC50 (µM) estimate
T5 construct: DSM 20083
Description: (§2) Compound effects on commensal microbes in dilution assay As our objective was to discover compounds that inhibit Chlamydia selectively but spare commensal bacteria, we further tested 15 of our top compounds (c1e–c10e and c1v–c5v) against five bacterial species, Escherichia coli, Lactobacillus reuteri, Enterococcus faecalis, Bacteroides thetaiotaomicron, and Bifidobacterium adolescentis, representing the four dominating phyla of the human gut microbiota. […] Exceptions were c3e and c5e, which at 30 µM were inhibitory to some species. […] Of note, c1e–c3e had little or no effect on the growth of an even larger set of species of gut bacteria, also including Blautia coccoides, Prevotella copri, Prevotella histicola, Bacteroides fragilis, and Dubosiella newyorkensis, when tested in radial diffusion assays, in which the bacteria were exposed to compounds for 24–48 h before measurements of growth inhibition zones (S10B Fig and S5G Data).

[7] = test system: T6, E. faecalis; assay: microbe, parasite or virus in culture; parameters: Microbial growth in liquid dilution assay, OD600 relative to DMSO control; conditions: Enterococcus faecalis; estimated IC50; read-out: E. faecalis, IC50 (µM) estimate
T6 construct: DSM 20478
Description: as §2

[8] = test system: T7, B. thetaiotaomicron; assay: microbe, parasite or virus in culture; parameters: Microbial growth in liquid dilution assay, OD600 relative to DMSO control; conditions: Bacteroides thetaiotaomicron; estimated IC50; read-out: B. thetaiotaomicron, IC50 (µM) estimate
T7 construct: DSM 2079
Description: as §2

[9] = test system: T8, L. reuteri; assay: microbe, parasite or virus in culture; parameters: Microbial growth in liquid dilution assay, OD600 relative to DMSO control; conditions: Limosilactobacillus reuteri; estimated IC50; read-out: L. reuteri, IC50 (µM) estimate
T8 construct: DSM 20016
Description: as §2

[10] = test system: T9, E. coli; assay: microbe, parasite or virus in culture; parameters: Microbial growth in liquid dilution assay, OD600 relative to DMSO control; conditions: Escherichia coli; estimated IC50; read-out: E. coli, IC50 (µM) estimate
T9 construct: DSM 301
Description: as §2

[11] = test system: T10, L. iners; assay: organism not typed; parameters: Microbial growth in liquid dilution assay, OD600 relative to DMSO control; conditions: estimated IC50; read-out: L. iners, IC50 (µM) estimate
T10 construct: DSM 13335

[12] = test system: T11, L. crispatus; assay: microbe, parasite or virus in culture; parameters: Microbial growth in liquid dilution assay, OD600 relative to DMSO control; conditions: Lactobacillus crispatus; estimated IC50; read-out: L. crispatus, IC50 (µM) estimate
T11 construct: DSM 20584

[13] = test system: T3, CTL2-GFP (C. trachomatis L2/434/Bu, GFP-expressing); assay: microbe, parasite or virus in culture; parameters: species or system HeLa; C. trachomatis growth in HeLa, dose-response, mean of bulk GFP fluorescence and imaged total inclusion area; conditions: Chlamydia trachomatis, 28.5 h; mean of GFP and inclusion area
Procedure, shortened: (§3)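 GFP/resorufin bulk fluorescence read → fix → Hoechst stain → high-content imaging. Inclusion total area + count = growth proxy; nuclei count = host viability proxy. MIC calc per earlier method.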

[14] = test system: T3, CTL2-GFP (C. trachomatis L2/434/Bu, GFP-expressing); assay: microbe, parasite or virus in culture; parameters: C. trachomatis growth in HeLa, dose-response, mean of bulk GFP fluorescence and imaged total inclusion area; conditions: Chlamydia trachomatis, HeLa, 28.5 h; mean of GFP and inclusion area
Procedure, shortened: as §3

[15] = in vitro; parameters: Viability of infected HeLa host cells, resazurin conversion, bulk resorufin fluorescence relative to DMSO; conditions: human, hela cells; bulk resorufin, mean of 3
[16] = target: T12, acyl-modification-free ctFabH (Chlamydia trachomatis, UniProt O84242); assay: intact protein LC/MS; type: biochemical; conditions: covalent acyl-enzyme intermediate; 10 µM protein, 50 µM acyl-CoA, pH 7.0
T12 construct: gene fabH
T12 sequence (O84242 2-327): T1 sequence (O84242 2-327)

| SMILES | IC50 [2] | IC50 [4] | IC50 [6] | IC50 [7] | IC50 [8] | IC50 [9] | IC50 [10] | IC50 [11] | IC50 [14] | viability at 28.5 h, 0.000416667 µM [15] | viability at 28.5 h, 0.00125 µM [15] | viability at 28.5 h, 0.00375 µM [15] | viability at 28.5 h, 0.0123333 µM [15] | viability at 28.5 h, 0.037 µM [15] | viability at 28.5 h, 0.111 µM [15] | viability at 28.5 h, 0.333 µM [15] | viability at 28.5 h, 1 µM [15] | viability at 28.5 h, 3 µM [15] | viability at 28.5 h, 10 µM [15] | viability at 28.5 h, 30 µM [15] | other results |
| --- | --- | --- | --- | --- | --- | --- | --- | --- | --- | --- | --- | --- | --- | --- | --- | --- | --- | --- | --- | --- | --- |
| CC(=O)SCCNC(=O)CCNC(=O)[C@H](O)C(C)(C)COP(=O)(O)OP(=O)(O)OC[C@H]1O[C@@H](n2cnc3c(N)ncnc32)[C@H](O)[C@@H]1OP(=O)(O)O [acetyl-CoA] |  |  |  |  |  |  |  |  |  |  |  |  |  |  |  |  |  |  |  |  | continuous UV assay of acetoacetyl-CoA at 302 nm [1]: using acetyl-CoA and malonyl-CoA (instead of malonyl-ACP) as substrates |
| Cc1noc(NS(=O)(=O)c2ccc(NC(=O)CSc3nc4ccccc4s3)cc2)c1C [c1v] | > 30 µM | > 30 µM | > 30 µM | > 30 µM | > 30 µM | > 30 µM | > 30 µM | > 30 µM |  |  |  |  |  |  |  |  |  |  |  |  | IC50 [3]: 0.412 µM; MIC [5]: 0.552 µM (≈ 0.262 µg/mL); IC50 [12]: > 30 µM |
| O=C(c1ccc(-c2ccc(F)cc2)o1)N1C[C@H]2CC[C@](O)(c3ccc(F)cc3)[C@H]2C1 [c2e] | > 30 µM | > 30 µM | > 30 µM | > 30 µM | > 30 µM | > 30 µM | > 30 µM | > 30 µM | 0.0961 µM | 90.3% | 85.8% | 93.6% | 89% | 91.7% | 95.5% | 95.7% | 93.7% | 98.2% | 98.8% | 116% | MIC [13]: 0.139 µM (≈ 0.0569 µg/mL); IC50 [12]: > 30 µM |
| O=C(N/N=C\c1ccc([N+](=O)[O-])o1)c1nc(-c2ccccc2)cc(-c2ccccc2)n1 [c3e] | > 30 µM | > 30 µM | 18.3 µM | 15.4 µM | 10.3 µM | > 30 µM | > 30 µM | > 30 µM | 0.126 µM | 92% | 92.4% | 88.3% | 89.2% | 86.8% | 92.2% | 91.6% | 90.7% | 90% | 98.9% | 107% | IC50 [12]: > 30 µM |
| c1c(C2CC2)[nH]c2nc(N3CCCC3)nc(N3CCCC3)c12 [c7e] |  |  | > 30 µM | > 30 µM | > 30 µM | > 30 µM | > 30 µM |  | 0.443 µM | 88.8% | 85.2% | 86.7% | 86.6% | 89.7% | 85.9% | 89.7% | 87.4% | 89.6% | 86.6% | 81.1% | MIC [13]: 0.669 µM (≈ 0.199 µg/mL) |
| COc1ccc(CC(=O)N2CCCC(c3nc(C)c4c(n3)N(CC3CC3)CCC4)C2)cc1 (stereo not drawn) [c52e] |  |  |  |  |  |  |  |  | 8.46 µM | 85.5% | 91.1% | 88.5% | 92.2% | 88.5% | 91.4% | 88.5% | 96.8% | 90.3% | 95.6% | 102% | MIC [13]: 9.34 µM (≈ 4.06 µg/mL) |
| CC(C)CC(=O)SCCNC(=O)CCNC(=O)[C@H](O)C(C)(C)COP(=O)(O)OP(=O)(O)OC[C@H]1O[C@@H](n2cnc3c(N)ncnc32)[C@H](O)[C@@H]1OP(=O)(O)O [isovaleryl-CoA] |  |  |  |  |  |  |  |  |  |  |  |  |  |  |  |  |  |  |  |  | intact protein LC/MS [16]: 2-methylbutyryl-CoA or isovaleryl-CoA, as expected, generated the corresponding acyl-enzyme intermediates |
